{"source": "patent US20250041280A1", "about": "“USE OF HETEROCYCLIC COMPOUNDS IN ALLEVIATING ADVERSE REACTIONS CAUSED BY CHEMOTHERAPEUTIC DRUGS” (TSINGHUA UNIVERSITY, priority 2021, published 2025)", "key": {"[1]": {"test_system": "small intestinal organoids in mice", "test": "Comparative experiment on the protective effects of PD332991, CHIR99021 and ISX on intestinal organoids", "details": "then 4 days of culture, FIG. 13", "excerpt": "(§1) 1. Isolation of Crypts and Culture of Organoids\nIn this example, PD0332991 and CHIR99021 were used as reference compounds to evaluate the protective effect of the compounds of the present application on intestinal organoids.\nAfter treatment, all compound treatments were terminated, and the organoids were washed 3 times with PBS, then culturing in fresh medium."}, "[2]": {"test_system": "small intestinal organoids in mice", "test": "Protection of ISX on injury of mouse small intestinal organoids caused by 5-FU, bright field and live cells/dead cells double staining", "assay_type": "cell-based", "details": "then 4 days of culture", "excerpt": "as §1"}, "[3]": {"test_system": "small intestinal organoids in mice", "test": "Protection of ISX on injury of mouse small intestinal organoids caused by etoposide, immunofluorescence staining", "assay_type": "cell-based", "details": "etoposide 50 uM + ISX 25 uM, 4 hours of treatment; FIG. 4", "excerpt": "as §1\n(§2) 3. Immunofluorescence of Organoids"}, "[4]": {"test_system": "small intestinal organoids in mice", "test": "Protection of ISX on injury of mouse small intestinal organoids caused by etoposide, Western blotting", "assay_type": "cell-based", "details": "etoposide 50 uM + ISX 25 uM, 4 hours of treatment; FIG. 5", "protocol": "as §1\n5. Western Blotting Assay\nAfter 4 hours of treatment, 4 groups of samples were collected for Western blotting assay."}, "[5]": {"test_system": "small intestinal organoids in mice", "test": "Protection of ISX on injury of mouse small intestinal organoids caused by etoposide, bright field and live cells/dead cells double staining", "assay_type": "cell-based", "details": "then 4 days of culture", "excerpt": "as §1"}, "intestinal tract of mice": {"test_system": "intestinal tract of mice", "test": "Protective effect of ISX on the intestinal tract of mice, TUNEL assay", "assay_type": "in vivo", "details": "etoposide 20 mg/kg intraperitoneally, ISX 20 mg/kg orally", "protocol": "6-8 week-old wild-type B6 mice were randomly divided into two groups. One group was intraperitoneally injected with chemotherapeutic drug etoposide (20 mg/kg), and then orally administered a cosolvent (5% DMSO+0.5% Tween 80+0.5% CMC-Na) (5 mL/kg); another group was intraperitoneally injected with chemotherapeutic drug etoposide (20 mg/kg), and then orally administered ISX dissolved in a cosolvent (20 mg/kg). The mice were sacrificed 3 hours later, and the intestinal tissues were fixed, followed by TUNEL staining assay."}, "[6]": {"test_system": "small intestinal organoids in mice", "test": "Protection of ISX on injury of mouse small intestinal organoids caused by 5-FU, immunofluorescence staining (cleaved caspase-3)", "details": "5-FU 50 uM alone, 4 hours of treatment; FIG. 1", "excerpt": "as §1, §2"}, "human colon organoids": {"test_system": "human colon organoids", "test": "Protection of ISX on human colon organoids, bright field and live cells/dead cells double staining", "details": "5-FU 20 uM alone", "description": "Calcein-AM/PI Live Cells/Dead Cells Double Staining Assay\nCalcein-AM can permeate the cell membrane, and the esterase in living cells can remove its AM group to produce calcein and emit fluorescence. PI (propidium iodide) cannot pass through the intact cell membrane, and only after the cell membrane is damaged and the permeability changes, PI can enter the cell to combine with DNA and emit fluorescence. Therefore, Calcein-AM/PI can be a label for distinguishing the live or dead cells.\nColon tissues were isolated from normal human tissue to perform organoid culture, after the culture was stable, performing subculture to continue the culture for 3-5 days. The culture was dividing into 4 groups: a control group of adding DMSO alone (DMSO group); a group of adding chemotherapy drug 5-fluorouracil (5-FU, 20 uM) alone (5-FU group); a group of adding ISX (10 uM) alone (ISX group); and a group of adding 5-FU (50 uM) and ISX (25 uM) simultaneously (5-FU+ISX group).\nThe signal generated by PI in the fluorescence image represents dead cells, and the signal generated by Calcein-AM represents living cells."}, "[7]": {"details": "5-FU 50 uM + ISX 25 uM, 8 hours of treatment, FIG. 2"}, "[8]": {"details": "etoposide 50 uM + ISX 25 uM, 8 hours of treatment, FIG. 6"}}, "data": [{"smiles": "CC(=O)c1c(C)c2cnc(Nc3ccc(N4CCNCC4)cn3)nc2n(C2CCCC2)c1=O", "note": "[PD332991]", "values": [{"measurement": "protection of small intestinal organoids against 5-FU (live cells/dead cells double staining)", "setting": "[1]; 5-FU 25 uM + PD0332991 100 nM", "value": "cannot protect small intestinal organoids"}]}, {"smiles": "Cc1c[nH]c(-c2cnc(NCCNc3ccc(C#N)cn3)nc2-c2ccc(Cl)cc2Cl)n1", "note": "[CHIR99021]", "values": [{"measurement": "protection of small intestinal organoids against 5-FU (live cells/dead cells double staining)", "setting": "[1]; 5-FU 25 uM + CHIR99021 10 uM", "value": "cannot protect small intestinal organoids"}]}, {"smiles": "O=C(NC1CC1)c1cc(-c2cccs2)on1", "note": "[ISX]", "values": [{"measurement": "biomass (bright field), 5-FU+ISX group compared with the 5-FU group", "setting": "[2]; [7]", "value": "significantly increased"}, {"measurement": "number of living cells (Calcein-AM), 5-FU+ISX group vs 5-FU group", "setting": "[2]; [7]", "value": "significantly more"}, {"measurement": "number of surviving crypt structures in each organoid, 5-FU+ISX group vs 5-FU group", "setting": "[2]; 5-FU 50 uM + ISX 25 uM, 8 hours, p<0.01, FIG. 3", "value": "significant difference"}, {"measurement": "cell death (cleaved caspase-3 signal) caused by etoposide", "setting": "[3]", "value": "significantly reduce the cell death"}, {"measurement": "cell death caused by etoposide (Western blotting)", "setting": "[4]", "value": "significantly reduce the cell death"}, {"measurement": "biomass (bright field), Eto+ISX group compared with the Eto group", "setting": "[5]; [8]", "value": "significantly increased"}, {"measurement": "number of living cells (Calcein-AM), Eto+ISX group vs Eto group", "setting": "[5]; [8]", "value": "significantly more"}, {"measurement": "number of surviving crypt structures in each organoid, Eto+ISX group vs Eto group", "setting": "[5]; etoposide 50 uM + ISX 25 uM, 8 hours, p<0.01, FIG. 7", "value": "significant difference"}, {"measurement": "number of TUNEL signals in each crypt, ISX group vs cosolvent group", "setting": "intestinal tract of mice; 3 hours, p<0.01, FIG. 12", "value": "significant difference"}, {"measurement": "TUNEL signal, orally administered ISX group vs cosolvent group", "setting": "intestinal tract of mice; sacrificed 3 hours later, FIG. 11", "value": "significantly lower"}]}, {"smiles": "COc1cc([C@@H]2c3cc4c(cc3[C@@H](O[C@@H]3O[C@@H]5CO[C@@H](C)O[C@H]5[C@H](O)[C@H]3O)[C@H]3COC(=O)[C@H]23)OCO4)cc(OC)c1O", "note": "[Eto, etoposide, reference compound]", "values": [{"measurement": "biomass (bright field), Eto group compared with DMSO group", "setting": "[5]; etoposide 50 uM alone, 8 hours of treatment, FIG. 6", "value": "significantly reduced"}]}, {"smiles": "O=c1[nH]cc(F)c(=O)[nH]1", "note": "[5-FU, 5-fluorouracil]", "values": [{"measurement": "dead cells (cleaved caspase-3 signal), 5-FU group vs DMSO group", "setting": "[6]", "value": "significantly higher"}, {"measurement": "biomass (bright field), 5-FU group compared with DMSO group", "setting": "[2]; 5-FU 50 uM alone, 8 hours of treatment, FIG. 2", "value": "significantly reduced"}, {"measurement": "number of crypt structures, 5-FU group vs DMSO group", "setting": "human colon organoids; 48 hours of treatment, p<0.01, FIGS. 8-9", "value": "significantly reduced"}, {"measurement": "dead cells (PI), 5-FU group compared with DMSO group", "setting": "human colon organoids; culture until day 5, FIG. 10", "value": "increased significantly"}]}]}
